Measured values as given in ChEMBL document CHEMBL3885861, “Open TG-GATES”.

Organism: Rattus norvegicus
Test: Open TG-GATES - Regimen: Single
Format: toxicity, organism-based, Sprague-Dawley
Design: regimen Single, gender Male, age 6 weeks
Conditions: in vivo, po, 300 mg/kg, route gavage, dose level Middle; for APTT / Bas / Eos / Fbg / Hb / Ht / Lym / MCH / MCHC / MCV / Mono / Neu / PT / Plat / RBC / Ret / WBC: tissue Blood; for KIDNEY_L / KIDNEY_R / KIDNEY_TOTAL: tissue Kidney; for LIVER: tissue Liver; for A/G / ALP / ALT / AST / BUN / CRE / Ca / Cl / DBIL / GLC / IP / K / LDH / Na / PL / RALB / TBIL / TC / TG / TP / gamma-GTP: tissue Plasma

Compound: CC(S)C(=O)NCC(=O)O (configuration not stated) [TIOPRONIN]
- TERMINAL_BW (3 h): 211.9 g
- APTT (3 h): 22.7 s
- Bas (3 h): 0%
- Eos (3 h): 0.4%
- Fbg (3 h): 295.4 mg/dL
- Hb (3 h): 12.8 g/dL
- Ht (3 h): 39.7%
- Lym (3 h): 77.8%
- MCH (3 h): 20.3 pg
- MCHC (3 h): 32.2%
- MCV (3 h): 63 fL
- Mono (3 h): 2.6%
- Neu (3 h): 18.4%
- PT (3 h): 16.8 s
- Plat (3 h): 116 x10_4/uL
- RBC (3 h): 631.6 x10_4/ul
- Ret (3 h): 7.7%
- WBC (3 h): 76.7 x10_2/uL
- KIDNEY_L (3 h): 0.9 g
- KIDNEY_R (3 h): 1 g
- KIDNEY_TOTAL (3 h): 1.9 g
- LIVER (3 h): 9.7 g
- A/G (3 h): 1.2
- ALP (3 h): 1446.8 IU/L
- ALT (3 h): 65.2 IU/L
- AST (3 h): 83.6 IU/L
- BUN (3 h): 10.8 mg/dL
- CRE (3 h): 0.1 mg/dL
- Ca (3 h): 10.7 mg/dL
- Cl (3 h): 106.2 meq/L
- DBIL (3 h): 0.002 mg/dL
- GLC (3 h): 194.8 mg/dL
- IP (3 h): 7.9 mg/dL
- K (3 h): 3.9 meq/L
- LDH (3 h): 169.4 IU/L
- Na (3 h): 142.2 meq/L
- PL (3 h): 125.2 mg/dL
- RALB (3 h): 3 g/dL
- TBIL (3 h): 0.02 mg/dL
- TC (3 h): 73.6 mg/dL
- TG (3 h): 47 mg/dL
- TP (3 h): 5.4 g/dL
- gamma-GTP (3 h): 2 IU/L
- TERMINAL_BW (6 h): 212 g
- APTT (6 h): 21.2 s
- Bas (6 h): 0%
- Eos (6 h): 0.8%
- Fbg (6 h): 290.4 mg/dL
- Hb (6 h): 12.6 g/dL
- Ht (6 h): 38.8%
- Lym (6 h): 80.4%
- MCH (6 h): 20.2 pg
- MCHC (6 h): 32.5%
- MCV (6 h): 62.2 fL
- Mono (6 h): 2.6%
- Neu (6 h): 15.4%
- PT (6 h): 16.9 s
- Plat (6 h): 121.4 x10_4/uL
- RBC (6 h): 625 x10_4/ul
- Ret (6 h): 8%
- WBC (6 h): 77.2 x10_2/uL
- KIDNEY_L (6 h): 0.9 g
- KIDNEY_R (6 h): 1 g
- KIDNEY_TOTAL (6 h): 1.9 g
- LIVER (6 h): 9.2 g
- A/G (6 h): 1.2
- ALP (6 h): 1527 IU/L
- ALT (6 h): 58 IU/L
- AST (6 h): 73 IU/L
- BUN (6 h): 8.4 mg/dL
- CRE (6 h): 0.1 mg/dL
- Ca (6 h): 10.8 mg/dL
- Cl (6 h): 107.4 meq/L
- DBIL (6 h): 0 mg/dL
- GLC (6 h): 191.6 mg/dL
- IP (6 h): 9.6 mg/dL
- K (6 h): 4.4 meq/L
- LDH (6 h): 154.2 IU/L
- Na (6 h): 142.2 meq/L
- PL (6 h): 117.2 mg/dL
- RALB (6 h): 2.9 g/dL
- TBIL (6 h): 0.022 mg/dL
- TC (6 h): 67.2 mg/dL
- TG (6 h): 59.4 mg/dL
- TP (6 h): 5.3 g/dL
- gamma-GTP (6 h): 1.8 IU/L
- TERMINAL_BW (9 h): 208.1 g
- APTT (9 h): 23.7 s
- Bas (9 h): 0%
- Eos (9 h): 0.4%
- Fbg (9 h): 293.4 mg/dL
- Hb (9 h): 12.9 g/dL
- Ht (9 h): 40.3%
- Lym (9 h): 77.8%
- MCH (9 h): 20.7 pg
- MCHC (9 h): 32.1%
- MCV (9 h): 64.6 fL
- Mono (9 h): 2.4%
- Neu (9 h): 18.6%
- PT (9 h): 16.3 s
- Plat (9 h): 118 x10_4/uL
- RBC (9 h): 624 x10_4/ul
- Ret (9 h): 7.7%
- WBC (9 h): 77 x10_2/uL
- KIDNEY_L (9 h): 0.9 g
- KIDNEY_R (9 h): 1 g
- KIDNEY_TOTAL (9 h): 1.9 g
- LIVER (9 h): 8.1 g
- A/G (9 h): 1.2
- ALP (9 h): 1363.8 IU/L
- ALT (9 h): 52.8 IU/L
- AST (9 h): 75 IU/L
- BUN (9 h): 10.6 mg/dL
- CRE (9 h): 0.1 mg/dL
- Ca (9 h): 10.6 mg/dL
- Cl (9 h): 107.4 meq/L
- DBIL (9 h): 0.008 mg/dL
- GLC (9 h): 191.4 mg/dL
- IP (9 h): 9.8 mg/dL
- K (9 h): 4.2 meq/L
- LDH (9 h): 194.2 IU/L
- Na (9 h): 143.2 meq/L
- PL (9 h): 110.6 mg/dL
- RALB (9 h): 2.8 g/dL
- TBIL (9 h): 0.02 mg/dL
- TC (9 h): 63.4 mg/dL
- TG (9 h): 42.2 mg/dL
- TP (9 h): 5.3 g/dL
- gamma-GTP (9 h): 1.2 IU/L
- TERMINAL_BW (24 h): 227.3 g
- APTT (24 h): 21.1 s
- Bas (24 h): 0%
- Eos (24 h): 0.8%
- Fbg (24 h): 312.6 mg/dL
- Hb (24 h): 12.7 g/dL
- Ht (24 h): 38.9%
- Lym (24 h): 80%
- MCH (24 h): 20.4 pg
- MCHC (24 h): 32.7%
- MCV (24 h): 62.2 fL
- Mono (24 h): 3%
- Neu (24 h): 15%
- PT (24 h): 16.1 s
- Plat (24 h): 113.7 x10_4/uL
- RBC (24 h): 624.6 x10_4/ul
- Ret (24 h): 7.4%
- WBC (24 h): 100.8 x10_2/uL
- KIDNEY_L (24 h): 1 g
- KIDNEY_R (24 h): 1 g
- KIDNEY_TOTAL (24 h): 1.9 g
- LIVER (24 h): 10.4 g
- A/G (24 h): 1.2
- ALP (24 h): 1662.2 IU/L
- ALT (24 h): 41.8 IU/L
- AST (24 h): 72.4 IU/L
- BUN (24 h): 14.6 mg/dL
- CRE (24 h): 0.2 mg/dL
- Ca (24 h): 10.8 mg/dL
- Cl (24 h): 106.4 meq/L
- DBIL (24 h): 0 mg/dL
- GLC (24 h): 193.6 mg/dL
- IP (24 h): 7.6 mg/dL
- K (24 h): 4.4 meq/L
- LDH (24 h): 161.6 IU/L
- Na (24 h): 142.6 meq/L
- PL (24 h): 143.2 mg/dL
- RALB (24 h): 3 g/dL
- TBIL (24 h): 0.018 mg/dL
- TC (24 h): 81.6 mg/dL
- TG (24 h): 102.4 mg/dL
- TP (24 h): 5.6 g/dL
- gamma-GTP (24 h): 1.2 IU/L
